From patent US12180193B2, “Accelerating fibrosarcoma protein degrading compounds and associated methods of use” (Arvinas Operations, Inc., priority 2020, dated 2024)

Columns and labels:
BRAF G466V = biological target: T1, BRAF G466V (Homo sapiens, UniProt P15056, G466V); assay: Cellular assay of target protein degradation, T-Rex 293 cells stably transfected with HA-BRAF G466V (HA immunofluorescence, high content imaging); format: cell-based; details: T-Rex 293 HA-BRAF G466V; for DC50: half maximal degradation, read-out: BRaf G466V DC50; for Dmax: maximum degradation observed
T1 construct: expressed in transfected cells
T1 sequence (P15056 whole entry G466V): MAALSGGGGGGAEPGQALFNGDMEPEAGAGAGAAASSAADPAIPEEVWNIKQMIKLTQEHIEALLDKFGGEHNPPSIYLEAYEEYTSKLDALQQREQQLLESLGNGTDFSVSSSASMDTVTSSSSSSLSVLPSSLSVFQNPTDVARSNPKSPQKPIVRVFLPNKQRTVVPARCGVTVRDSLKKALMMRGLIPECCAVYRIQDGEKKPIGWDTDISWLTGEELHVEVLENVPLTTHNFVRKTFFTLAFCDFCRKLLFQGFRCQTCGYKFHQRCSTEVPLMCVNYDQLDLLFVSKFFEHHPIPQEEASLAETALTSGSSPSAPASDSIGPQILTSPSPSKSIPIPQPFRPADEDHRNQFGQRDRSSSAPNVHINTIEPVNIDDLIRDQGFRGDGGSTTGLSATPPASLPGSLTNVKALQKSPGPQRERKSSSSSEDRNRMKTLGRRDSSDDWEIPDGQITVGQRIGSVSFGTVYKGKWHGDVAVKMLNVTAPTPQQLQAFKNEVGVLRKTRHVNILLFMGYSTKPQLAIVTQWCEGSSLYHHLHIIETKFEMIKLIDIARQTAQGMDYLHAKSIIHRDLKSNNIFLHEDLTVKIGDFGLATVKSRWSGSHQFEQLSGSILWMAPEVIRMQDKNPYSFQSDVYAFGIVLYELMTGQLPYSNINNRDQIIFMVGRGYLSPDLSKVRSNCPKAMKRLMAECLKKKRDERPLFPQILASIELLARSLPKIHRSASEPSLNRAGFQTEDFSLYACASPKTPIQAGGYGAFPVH
Summary of the method: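 HA-BRAF G466V levels were read by HA immunofluorescence and high-content imaging after 24 h compound exposure (final 30 nM–3 pM, 0.1% DMSO, 37 °C). Expression was induced with 0.75 ng/mL doxycycline. Outputs: half-maximal degradation concentration (DC50) and maximal degradation (Dmax) relative to control.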

BRAF V600E = biological target: T2, BRAF V600E (Homo sapiens, UniProt P15056, V600E); assay: Cellular assay of target protein degradation, T-Rex 293 cells stably transfected with HA-BRAF_V600E (HA immunofluorescence, high content imaging); format: cell-based; details: T-Rex 293 HA-BRAF V600E; for DC50: half maximal degradation, read-out: BRaf V600E DC50; for Dmax: maximum degradation observed
T2 construct: expressed in transfected cells
T2 sequence (P15056 whole entry V600E): as the sequence (P15056 whole entry G466V) above, with V466G, V600E counted along it
Summary of the method: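 HA immunofluorescence on fixed cells, imaged by high-content reader, measured loss of HA-BRAF V600E in stably transfected T-Rex 293 cells induced with 1 ng/mL doxycycline. Compounds were applied for 24 h at 37 °C (final 0.1 nM–1 μM, 0.1% DMSO); DC50 and Dmax (% of control) were reported.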

| DC50 (BRAF G466V) | Dmax (BRAF G466V) | DC50 (BRAF V600E) | Dmax (BRAF V600E) | SMILES |
| --- | --- | --- | --- | --- |
| 1 to 10 nM | > 70% | 5 to 50 nM | 35 to 70% | O=C1CC[C@@H](N2Cc3cc(CC[C@H](O)CN4CC5(C4)CN(c4ccc(-c6cnc7[nH]cc(C(=O)c8c(F)ccc(NS(=O)(=O)N9CC[C@@H](F)C9)c8F)c7c6)cc4)C5)ccc3C2=O)C(=O)N1 [Compound 173, (3R)-N-{3-[5-(4-{6-[(2S)-4-{2-[(3R)-2,6-dioxopiperidin-3-yl]-1-oxo-2,3-dihydro-1H-isoindol-5-yl}-2-hydroxybutyl]-2,6-diazaspiro[3.3]heptan-2-yl}phenyl)-1H-pyrrolo[2,3-b]pyridine-3-carbonyl]-2,4-difluorophenyl}-3-fluoropyrrolidine-1-sulfonamide] |
| 1 to 10 nM | > 70% | > 500 nM |  | O=C1CC[C@@H](N2Cc3cc(CCCCN4CC5(C4)CN(c4ccc(-c6cnc7[nH]cc(C(=O)c8c(F)ccc(NS(=O)(=O)N9CC[C@@H](F)C9)c8F)c7c6)cc4)C5)ccc3C2=O)C(=O)N1 [Compound 63, (3R)-N-[3-(5-{4-[6-(4-{2-[(3R)-2,6-dioxopiperidin-3-yl]-1-oxo-2,3-dihydro-1H-isoindol-5-yl}butyl)-2,6-diazaspiro[3.3]heptan-2-yl]phenyl}-1H-pyrrolo[2,3-b]pyridine-3-carbonyl)-2,4-difluorophenyl]-3-fluoropyrrolidine-1-sulfonamide] |
| < 1 nM | > 70% | 5 to 50 nM | 35 to 70% | O=C1CC[C@@H](N2Cc3cc(C4CN(CC5CCN(c6ccc(-c7cnc8[nH]cc(C(=O)c9c(F)ccc(NS(=O)(=O)N%10CC[C@@H](F)C%10)c9F)c8c7)cc6)CC5)C4)ccc3C2=O)C(=O)N1 [Compound 84, (3R)-N-{3-[5-(4-{4-[(3-{2-[(3R)-2,6-dioxopiperidin-3-yl]-1-oxo-2,3-dihydro-1H-isoindol-5-yl}azetidin-1-yl)methyl]piperidin-1-yl}phenyl)-1H-pyrrolo[2,3-b]pyridine-3-carbonyl]-2,4-difluorophenyl}-3-fluoropyrrolidine-1-sulfonamide] |
| 1 to 10 nM | > 70% | 50 to 500 nM | 35 to 70% | O=C1CCC(N2Cc3cc(N4CC(CN5CCC(Cc6ncc(-c7cnc8[nH]cc(C(=O)c9c(F)ccc(NS(=O)(=O)N%10CC[C@@H](F)C%10)c9F)c8c7)cn6)CC5)C4)ccc3C2=O)C(=O)N1 (stereo partly drawn) [Compound 194, (3R)-N-{3-[5-(2-{[1-({1-[2-(2,6-dioxopiperidin-3-yl)-1-oxo-2,3-dihydro-1H-isoindol-5-yl]azetidin-3-yl}methyl)piperidin-4-yl]methyl}pyrimidin-5-yl)-1H-pyrrolo[2,3-b]pyridine-3-carbonyl]-2,4-difluorophenyl}-3-fluoropyrrolidine-1-sulfonamide] |
| 1 to 10 nM | > 70% | < 5 nM | 35 to 70% | O=C1CC[C@@H](N2Cc3cc(C[C@H](O)CN4CCN(c5ccc(-c6cnc7[nH]cc(C(=O)c8c(F)ccc(NS(=O)(=O)N9CC[C@@H](F)C9)c8F)c7c6)cc5)CC4)ccc3C2=O)C(=O)N1 [Compound 75, (3R)-N-{3-[5-(4-{4-[(2S)-3-{2-[(3R)-2,6-dioxopiperidin-3-yl]-1-oxo-2,3-dihydro-1H-isoindol-5-yl}-2-hydroxypropyl]piperazin-1-yl}phenyl)-1H-pyrrolo[2,3-b]pyridine-3-carbonyl]-2,4-difluorophenyl}-3-fluoropyrrolidine-1-sulfonamide] |
| 1 to 10 nM | > 70% | 5 to 50 nM | 35 to 70% | O=C1CCC(N2Cc3cc(N4CC(CN5CCN(Cc6ccc(-c7cnc8[nH]cc(C(=O)c9c(F)ccc(NS(=O)(=O)N%10CC[C@@H](F)C%10)c9F)c8c7)cc6)CC5)C4)ccc3C2=O)C(=O)N1 (stereo partly drawn) [Compound 192, (3R)-N-{3-[5-(4-{[4-({1-[2-(2,6-dioxopiperidin-3-yl)-1-oxo-2,3-dihydro-1H-isoindol-5-yl]azetidin-3-yl}methyl)piperazin-1-yl]methyl}phenyl)-1H-pyrrolo[2,3-b]pyridine-3-carbonyl]-2,4-difluorophenyl}-3-fluoropyrrolidine-1-sulfonamide] |
| 1 to 10 nM | > 70% | 5 to 50 nM | 35 to 70% | O=C1CC[C@@H](N2Cc3cc(N4CC(CN5C[C@@H]6CN(c7ccc(-c8cnc9[nH]cc(C(=O)c%10c(F)ccc(NS(=O)(=O)N%11CC[C@@H](F)C%11)c%10F)c9c8)cc7)C[C@@H]6C5)C4)ccc3C2=O)C(=O)N1 [Compound 86, (3R)-N-[3-(5-{4-[(3aR,6aS)-5-[(1-{2-[(3R)-2,6-dioxopiperidin-3-yl]-1-oxo-2,3-dihydro-1H-isoindol-5-yl}azetidin-3-yl)methyl]-octahydropyrrolo[3,4-c]pyrrol-2-yl]phenyl}-1H-pyrrolo[2,3-b]pyridine-3-carbonyl)-2,4-difluorophenyl]-3-fluoropyrrolidine-1-sulfonamide] |

Second part, the molecule before the results:

| SMILES | DC50 (BRAF G466V) | Dmax (BRAF G466V) | DC50 (BRAF V600E) | Dmax (BRAF V600E) |
| --- | --- | --- | --- | --- |
| CCCS(=O)(=O)Nc1ccc(F)c(C(=O)c2c[nH]c3ncc(-c4ccc(N5CCC(CN6CCC(c7ccc8c(c7)CN([C@@H]7CCC(=O)NC7=O)C8=O)CC6)CC5)cc4)cc23)c1F [Compound 235, N-{3-[5-(4-{4-[(4-{2-[(3R)-2,6-dioxopiperidin-3-yl]-1-oxo-2,3-dihydro-1H-isoindol-5-yl}piperidin-1-yl)methyl]piperidin-1-yl}phenyl)-1H-pyrrolo[2,3-b]pyridine-3-carbonyl]-2,4-difluorophenyl}propane-1-sulfonamide] | 1 to 10 nM | > 70% | 5 to 50 nM | 35 to 70% |
| O=C1CCC(N2Cc3cc(N4CC[C@H]4COc4ccc(-c5cnc6[nH]cc(C(=O)c7c(F)ccc(NS(=O)(=O)N8CC[C@@H](F)C8)c7F)c6c5)cc4)ccc3C2=O)C(=O)N1 (stereo partly drawn) [Compound 23, (3R)-N-{3-[5-(4-{[(2S)-1-[2-(2,6-dioxopiperidin-3-yl)-1-oxo-2,3-dihydro-1H-isoindol-5-yl]azetidin-2-yl]methoxy}phenyl)-1H-pyrrolo[2,3-b]pyridine-3-carbonyl]-2,4-difluorophenyl}-3-fluoropyrrolidine-1-sulfonamide] | > 30 nM |  | > 500 nM |  |
| O=C1CC[C@@H](NC(=O)N2CCCc3c(C4CCN(CC5CCN(c6ccc(-c7cnc8[nH]cc(C(=O)c9c(F)ccc(NS(=O)(=O)N%10CC[C@@H](F)C%10)c9F)c8c7)cc6)CC5)CC4)ccnc32)C(=O)N1 [Compound 367, 5-(1-{[1-(4-{3-[2,6-difluoro-3-({[(3R)-3-fluoropyrrolidin-1-yl]sulfonyl}amino)benzoyl]-1H-pyrrolo[2,3-b]pyridin-5-yl}phenyl)piperidin-4-yl]methyl}piperidin-4-yl)-N-[(3R)-2,6-dioxopiperidin-3-yl]-1,2,3,4-tetrahydro-1,8-naphthyridine-1-carboxamide] | 1 to 10 nM | < 35% | > 500 nM |  |
| O=C1CC[C@H](N2Cc3cc([C@H](O)CCN4CCC(c5ccc(-c6cnc7[nH]cc(C(=O)c8c(F)ccc(NS(=O)(=O)N9CC[C@@H](F)C9)c8F)c7c6)cc5)CC4)ccc3C2=O)C(=O)N1 [Compound 67, (3R)—N-[3-[5-(4-[1-[(3R)-3-[2-[(3S)-2,6-dioxopiperidin-3-yl]-1-oxo-3H-isoindol-5-yl]-3-hydroxypropyl]piperidin-4-yl]phenyl)-1H-pyrrolo[2,3-b]pyridine-3-carbonyl]-2,4-difluorophenyl]-3-fluoropyrrolidine-1-sulfonamide] | 1 to 10 nM | > 70% | 5 to 50 nM | 35 to 70% |
| O=C1CCC(N2Cc3cc(N4CCC(CN5CCN(Cc6ncc(-c7cnc8[nH]cc(C(=O)c9c(F)ccc(NS(=O)(=O)N%10CC[C@@H](F)C%10)c9F)c8c7)cn6)CC5)CC4)ccc3C2=O)C(=O)N1 (stereo partly drawn) [Compound 153, (3R)-N-{3-[5-(2-{[4-({1-[2-(2,6-dioxopiperidin-3-yl)-1-oxo-2,3-dihydro-1H-isoindol-5-yl]piperidin-4-yl}methyl)piperazin-1-yl]methyl}pyrimidin-5-yl)-1H-pyrrolo[2,3-b]pyridine-3-carbonyl]-2,4-difluorophenyl}-3-fluoropyrrolidine-1-sulfonamide] | 1 to 10 nM | > 70% | 50 to 500 nM | > 70% |
| O=C1CCC(N2Cc3cc(N4CCC(CN5CCN(C6(c7ncc(-c8cnc9[nH]cc(C(=O)c%10c(F)ccc(NS(=O)(=O)N%11CC[C@@H](F)C%11)c%10F)c9c8)cn7)CC6)CC5)CC4)ccc3C2=O)C(=O)N1 (stereo partly drawn) [Compound 298, (3R)-N-{3-[5-(2-{1-[4-({1-[2-(2,6-dioxopiperidin-3-yl)-1-oxo-2,3-dihydro-1H-isoindol-5-yl]piperidin-4-yl}methyl)piperazin-1-yl]cyclopropyl}pyrimidin-5-yl)-1H-pyrrolo[2,3-b]pyridine-3-carbonyl]-2,4-difluorophenyl}-3-fluoropyrrolidine-1-sulfonamide] | < 1 nM | 35 to 70% | 50 to 500 nM | < 35% |
| O=C1CCC(N2Cc3cc(N4CC(CN5CCC(C6(c7ncc(-c8cnc9[nH]cc(C(=O)c%10c(F)ccc(NS(=O)(=O)N%11CC[C@@H](F)C%11)c%10F)c9c8)cn7)CC6)CC5)C4)ccc3C2=O)C(=O)N1 (stereo partly shown) [Compound 334] | 1 to 10 nM | > 70% | 50 to 500 nM | 35 to 70% |
